Here are results for 8 compounds from patent US11377442B2, “Small molecule agonists and antagonists of NR2F6 activity” (ZANDER THERAPEUTICS, INC., priority 2016, dated 2022).

What all share (type): cell-based
The target of one experiment is T1, NR2F6 (Homo sapiens, UniProt P10588).
T1 construct: expressed in transfected cells; also transient transfection
T1 sequence (P10588 1-404): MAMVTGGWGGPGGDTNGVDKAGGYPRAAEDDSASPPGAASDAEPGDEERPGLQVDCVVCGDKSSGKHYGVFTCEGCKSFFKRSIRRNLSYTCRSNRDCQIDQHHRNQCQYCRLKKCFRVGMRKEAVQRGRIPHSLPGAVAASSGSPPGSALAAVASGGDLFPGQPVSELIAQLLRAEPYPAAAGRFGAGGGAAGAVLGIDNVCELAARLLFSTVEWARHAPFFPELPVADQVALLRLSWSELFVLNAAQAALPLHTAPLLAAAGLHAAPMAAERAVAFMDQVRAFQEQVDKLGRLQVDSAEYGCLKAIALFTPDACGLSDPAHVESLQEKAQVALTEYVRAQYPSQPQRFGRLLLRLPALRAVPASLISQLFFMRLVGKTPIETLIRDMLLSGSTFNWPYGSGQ
The experiment in a line: NR2F6 agonist screening, Firefly signal cmpd/DMSO. Conditions: first set screening, 10 μM.

The target of another experiment is T2, ERα (Homo sapiens, UniProt P03372).
T2 construct: expressed in transfected cells
T2 sequence (P03372 1-595): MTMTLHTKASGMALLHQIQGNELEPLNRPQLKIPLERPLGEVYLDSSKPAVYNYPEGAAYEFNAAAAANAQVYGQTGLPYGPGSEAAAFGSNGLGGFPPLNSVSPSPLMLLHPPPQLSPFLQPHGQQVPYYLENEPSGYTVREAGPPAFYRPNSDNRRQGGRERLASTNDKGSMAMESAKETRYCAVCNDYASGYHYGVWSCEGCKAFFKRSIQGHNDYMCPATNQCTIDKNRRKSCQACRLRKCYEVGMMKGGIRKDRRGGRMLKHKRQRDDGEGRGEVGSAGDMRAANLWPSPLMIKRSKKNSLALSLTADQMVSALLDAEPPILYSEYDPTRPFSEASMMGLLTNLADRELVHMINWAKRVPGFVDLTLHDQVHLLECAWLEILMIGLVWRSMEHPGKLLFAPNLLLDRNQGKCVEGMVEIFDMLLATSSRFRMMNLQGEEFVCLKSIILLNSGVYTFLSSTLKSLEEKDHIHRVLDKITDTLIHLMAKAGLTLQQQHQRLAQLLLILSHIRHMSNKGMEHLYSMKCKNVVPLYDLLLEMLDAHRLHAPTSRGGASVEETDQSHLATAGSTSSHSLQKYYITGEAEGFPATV
The experiment in a line: Counterscreening, Firefly signal with ERα transient transfection (Firefly_ERa). The conditions noted are these: ERα transient transfection, 10 μM. How it is done: The methodology for screening candidate compounds as NR2F6 agonists was as follows: For primary screening, hit criteria was ACT %>DMSO control+5*SD (DSO control) at 10 μM, or any compound with S/B>2. For rescreening, hit criteria was ACT %>DMSO control+3*SD (DSO control) in each replicate at 10 μM. For counterscreening, hit criteria was mean ACT<DMSO control+3*SD (DMSO control) with ERα transient transfection in duplicate at 10 μM.
(In general: The purpose of a counterscreen is to sort out artefacts and off-target activity.)

Another experiment concerns Renilla. The experiment in a line: Renilla signal in NR2F6 agonist screening, cmpd/DMSO. The conditions noted are these: first set screening, 10 μM; for fold induction at 10 µM: Renilla.
In another experiment the test system is Renilla_ERa. The experiment in a line: Renilla signal in ERα counterscreen (Renilla_ERa). Conditions: ERα transient transfection, 10 μM.
Setting [1] is: repeat 1, read-out: Renilla, cmpd/DMSO repeat 1.
Setting [2] is: repeat 2, read-out: Renilla, cmpd/DMSO repeat 2.
Where [3] appears, read: repeat 1, read-out: Renilla_ERa, cmpd/DMSO repeat 1.
[4] abbreviates: repeat 2, read-out: Renilla_ERa, cmpd/DMSO repeat 2.

SMILES strings stand for the structures. Read-outs that look alike come from different tables or passages of the source.

`O=C(Nc1ccc(Cl)cn1)c1ccc(I)cc1` [Compound 18]: the “Firefly, cmpd/DMSO repeat 1” value at NR2F6 was determined as 3.8. For the same compound, the “Firefly, cmpd/DMSO repeat 2” value at NR2F6 stood at 3.8. The “Firefly_ERa, cmpd/DMSO repeat 1” value on ERα stood at 2.5. Further, at ERα, the “Firefly_ERa, cmpd/DMSO repeat 2” value is recorded as 1.9. Also, the fold induction at 10 µM turned out to be 3.3 in the experiment on Renilla (setting [1]), 4.2 with Renilla (setting [2]), 0.8 with Renilla_ERa (setting [3]) and 0.9 in the experiment on Renilla_ERa (setting [4]).

For `Cc1ccnc(NC(=O)c2cc3sc4ccccc4c3s2)c1` [Compound 20], on NR2F6, the “Firefly, cmpd/DMSO repeat 1” value came to 2.2 and the “Firefly, cmpd/DMSO repeat 2” value came to 2.1. Moreover, at ERα, the “Firefly_ERa, cmpd/DMSO repeat 1” value came out at 1.5 and the “Firefly_ERa, cmpd/DMSO repeat 2” value is 1.7. Moreover, the “Renilla, cmpd/DMSO repeat 1” value with Renilla (repeat 1) amounted to 4.4. In the experiment with Renilla (repeat 2), the “Renilla, cmpd/DMSO repeat 2” value came out at 4.8. Further, the “Renilla_ERa, cmpd/DMSO repeat 1” value with Renilla_ERa (repeat 1) is reported as 1.1. The “Renilla_ERa, cmpd/DMSO repeat 2” value with Renilla_ERa (repeat 2) came to 0.9.

With `CCn1c2c(c(=O)[nH]c1=O)C(c1ccc(C(C)C)cc1)C1=C(N2)c2ccccc2C1=O` (stereo not shown) [Compound 21], on NR2F6, the “Firefly, cmpd/DMSO repeat 1” value worked out at 2.4 and the “Firefly, cmpd/DMSO repeat 2” value was 2.2. Moreover, at ERα, the “Firefly_ERa, cmpd/DMSO repeat 1” value is 1.1 and the “Firefly_ERa, cmpd/DMSO repeat 2” value came out at 1.0. Also, the “Renilla, cmpd/DMSO repeat 1” value in the experiment on Renilla (repeat 1) was determined as 3.8. In addition, the “Renilla, cmpd/DMSO repeat 2” value with Renilla (repeat 2) is 3.0. Also, the “Renilla_ERa, cmpd/DMSO repeat 1” value in the experiment on Renilla_ERa (repeat 1) came to 1.1. Also, the “Renilla_ERa, cmpd/DMSO repeat 2” value in the experiment with Renilla_ERa (repeat 2) was found to be 0.9.

Take `Nc1nonc1-c1noc(-c2cccc(COc3ccc(Cl)cc3Cl)c2)n1` [Compound 23]: at NR2F6, the “Firefly, cmpd/DMSO repeat 1” value came to 3.0 and the “Firefly, cmpd/DMSO repeat 2” value is given as 1.9. Moreover, on ERα, the “Firefly_ERa, cmpd/DMSO repeat 1” value is on record as 1.8 and the “Firefly_ERa, cmpd/DMSO repeat 2” value stood at 1.8. The “Renilla, cmpd/DMSO repeat 1” value in the experiment on Renilla (repeat 1) came to 4.6. Besides, the “Renilla, cmpd/DMSO repeat 2” value in the experiment with Renilla (repeat 2) amounted to 3.4. Besides, the “Renilla_ERa, cmpd/DMSO repeat 1” value in the experiment with Renilla_ERa (repeat 1) was determined as 1.1. The “Renilla_ERa, cmpd/DMSO repeat 2” value in the experiment on Renilla_ERa (repeat 2) worked out at 1.2.

On to `CCc1ccc(OCC(=O)Nc2cc(-c3nc4cc(C)ccc4o3)ccc2C)cc1` [Compound 24], for which, on NR2F6, the “Firefly, cmpd/DMSO repeat 1” value is given as 2.0 and the “Firefly, cmpd/DMSO repeat 2” value came out at 2.3. Moreover, at ERα, the “Firefly_ERa, cmpd/DMSO repeat 1” value was 1.3 and the “Firefly_ERa, cmpd/DMSO repeat 2” value came out at 1.6. Besides, in the experiment with Renilla (repeat 1), the “Renilla, cmpd/DMSO repeat 1” value came to 2.4. The “Renilla, cmpd/DMSO repeat 2” value with Renilla (repeat 2) turned out to be 2.2. Besides, the “Renilla_ERa, cmpd/DMSO repeat 1” value in the experiment on Renilla_ERa (repeat 1) was determined as 0.9. For the same compound, the “Renilla_ERa, cmpd/DMSO repeat 2” value with Renilla_ERa (repeat 2) turned out to be 1.0.

Consider `O=c1[nH]c(CS(=O)(=O)c2ccccc2)nc2sc3c(c12)CCCC3` [Compound 25], for which, at NR2F6, the “Firefly, cmpd/DMSO repeat 1” value is recorded as 2.4 and the “Firefly, cmpd/DMSO repeat 2” value is reported as 1.9. Moreover, at ERα, the “Firefly_ERa, cmpd/DMSO repeat 1” value is given as 1.3 and the “Firefly_ERa, cmpd/DMSO repeat 2” value is 0.7. The “Renilla, cmpd/DMSO repeat 1” value with Renilla (repeat 1) is reported as 3.1. In addition, the “Renilla, cmpd/DMSO repeat 2” value in the experiment with Renilla (repeat 2) is 2.1. The “Renilla_ERa, cmpd/DMSO repeat 1” value in the experiment on Renilla_ERa (repeat 1) amounted to 0.9. The “Renilla_ERa, cmpd/DMSO repeat 2” value in the experiment with Renilla_ERa (repeat 2) stood at 1.0.

Take `COc1ccc(-c2cc(C(F)(F)F)nc(S(=O)(=O)CCCC(=O)Nc3sc4c(c3C(N)=O)CCCC4)n2)cc1OC` [Compound C2]: at NR2F6, the “Firefly, cmpd/DMSO repeat 1” value came to 2.7. In addition, the “Firefly, cmpd/DMSO repeat 2” value on NR2F6 amounted to 2.2. Further, the “Firefly_ERa, cmpd/DMSO repeat 1” value at ERα is listed as 1.0. Moreover, the “Firefly_ERa, cmpd/DMSO repeat 2” value at ERα is recorded as 0.8. The fold induction at 10 µM turned out to be 6 in the experiment with Renilla (setting [1]), 5.3 in the experiment on Renilla (setting [2]), 1.7 with Renilla_ERa (setting [3]) and 1.6 in the experiment with Renilla_ERa (setting [4]).

In the case of `COCCNC(=O)c1ccc2c(c1)N=C(C)c1cc(C)ccc1S2` [Compound C8], on NR2F6, the “Firefly, cmpd/DMSO repeat 1” value is 2.1. The “Firefly, cmpd/DMSO repeat 2” value on NR2F6 worked out at 2.8. Also, on ERα, the “Firefly_ERa, cmpd/DMSO repeat 1” value worked out at 1.2. Besides, the “Firefly_ERa, cmpd/DMSO repeat 2” value at ERα was 1.2. For the same compound, the fold induction at 10 µM with Renilla (setting [1]) came out at 3.4; in the experiment with Renilla (setting [2]), 3.1; with Renilla_ERa (setting [3]), 1; in the experiment on Renilla_ERa (setting [4]), 1.1.
